From PMC9541272, “Carba Analogues of Flupirtine and Retigabine with Improved Oxidation Resistance and Reduced Risk of Quinoid Metabolite Formation” (Chemmedchem, 2022)
Read-outs that look alike come from different tables or passages of the source.

Key:
[1] = test system: TAMH mouse liver cell line; conditions: mouse, 24 h
[2] = LogD7.4 estimation by HPLC-based method; assay type: physicochemical; conditions: for logD7.4 (single determination): calculated from retention time with one calibration function (A–F)
Procedure: The logarithm of the capacity factors of the reference substances was then plotted against the corresponding logP values taken from the mentioned guideline to obtain a calibration function. For non‐ionizable compounds like the reference substances used for calibration, logP values can be considered equivalent to the logD 7.4 values. To obtain a reference mixture, 2 mg of the reference substances were each dissolved in 1 mL of methanol, and 50 μL aliquots of each reference solution were subsequently combined. The reference mixture was measured before and after the substances to be tested, and the mean retention time from both measurements was used to calculate the calibration function. The calibration function was then used to determine the logD 7.4 values from the corresponding retention times for each substance to be tested. The compounds of interest were injected as a solution in methanol (2 mg/mL), and the retention time was determined as the mean value from two measurements.

[3] = Cyclic voltammetry, anodic peak potential (oxidizability); assay type: physicochemical; conditions: 0.1 M Tris‐HCl buffer pH 7.4, −0.5 to 1.0 V, sweep rate 0.1 V/s, –[b] = no oxidation observed in the specified potential range
KV7.2/3 channel = KV7.2/3 channel (Homo sapiens, UniProt O43525+O43526); assay: KV7.2/3 channel opening activity, thallium-flux FLIPR Potassium Assay in HEK-293 cells overexpressing KV7.2/3; design: Emax: dose or concentration left out as unconfirmed; conditions: for Emax: HEK293E, read-out: Efficacy; for KV7.2/3 opening activity (in words): HEK‐293 cells overexpressing KV7.2/3
KV7.2/3 channel, sequence (O43525 whole entry): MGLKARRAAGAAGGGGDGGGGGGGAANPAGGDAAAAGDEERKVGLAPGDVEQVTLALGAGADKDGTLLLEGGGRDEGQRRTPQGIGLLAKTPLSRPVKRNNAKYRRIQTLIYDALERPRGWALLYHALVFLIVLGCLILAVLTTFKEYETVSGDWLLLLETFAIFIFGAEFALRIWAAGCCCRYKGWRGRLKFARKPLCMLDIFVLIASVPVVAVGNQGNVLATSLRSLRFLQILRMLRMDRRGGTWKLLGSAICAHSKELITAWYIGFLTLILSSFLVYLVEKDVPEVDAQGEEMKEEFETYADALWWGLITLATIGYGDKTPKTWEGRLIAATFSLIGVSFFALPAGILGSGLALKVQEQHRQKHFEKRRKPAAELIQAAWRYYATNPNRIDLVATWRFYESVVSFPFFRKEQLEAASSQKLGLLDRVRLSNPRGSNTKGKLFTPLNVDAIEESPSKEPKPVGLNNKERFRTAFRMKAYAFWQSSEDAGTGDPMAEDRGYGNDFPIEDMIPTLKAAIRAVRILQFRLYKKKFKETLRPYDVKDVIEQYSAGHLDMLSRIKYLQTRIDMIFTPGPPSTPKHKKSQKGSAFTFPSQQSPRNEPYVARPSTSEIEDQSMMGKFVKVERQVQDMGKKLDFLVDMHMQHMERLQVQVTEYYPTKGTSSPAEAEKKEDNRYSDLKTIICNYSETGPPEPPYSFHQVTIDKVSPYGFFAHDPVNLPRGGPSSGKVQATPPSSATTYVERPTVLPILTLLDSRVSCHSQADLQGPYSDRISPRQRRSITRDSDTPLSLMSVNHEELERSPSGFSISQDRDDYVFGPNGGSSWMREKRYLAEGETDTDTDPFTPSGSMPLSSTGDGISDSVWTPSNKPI
KV7.2/3 channel, sequence (O43526 whole entry): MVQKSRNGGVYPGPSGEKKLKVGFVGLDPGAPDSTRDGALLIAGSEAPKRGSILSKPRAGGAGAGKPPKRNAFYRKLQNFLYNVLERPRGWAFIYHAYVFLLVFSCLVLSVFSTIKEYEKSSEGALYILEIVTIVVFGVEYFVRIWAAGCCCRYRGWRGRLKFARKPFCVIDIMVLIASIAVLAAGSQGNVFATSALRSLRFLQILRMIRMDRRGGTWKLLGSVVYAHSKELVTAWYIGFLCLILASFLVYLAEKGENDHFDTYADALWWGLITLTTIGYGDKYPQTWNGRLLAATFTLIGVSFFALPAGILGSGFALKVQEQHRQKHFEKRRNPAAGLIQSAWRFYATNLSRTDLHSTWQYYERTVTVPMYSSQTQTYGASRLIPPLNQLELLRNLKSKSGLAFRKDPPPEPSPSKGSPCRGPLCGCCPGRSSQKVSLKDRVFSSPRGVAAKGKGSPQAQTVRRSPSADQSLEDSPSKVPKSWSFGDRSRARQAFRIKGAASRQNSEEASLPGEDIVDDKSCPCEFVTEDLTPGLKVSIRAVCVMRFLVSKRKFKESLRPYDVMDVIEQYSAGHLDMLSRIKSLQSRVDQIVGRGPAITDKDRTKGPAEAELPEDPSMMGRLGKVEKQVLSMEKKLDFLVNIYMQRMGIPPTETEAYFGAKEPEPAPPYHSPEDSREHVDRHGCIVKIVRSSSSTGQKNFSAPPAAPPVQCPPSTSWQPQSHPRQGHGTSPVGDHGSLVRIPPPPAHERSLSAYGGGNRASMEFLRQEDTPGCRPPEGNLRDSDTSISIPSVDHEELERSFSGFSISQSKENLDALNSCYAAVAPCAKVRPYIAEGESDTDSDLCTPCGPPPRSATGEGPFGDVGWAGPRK

[4] = test system: HEP‐G2 human hepatoma cell line; conditions: human, 24 h
[5] = pH 7.4, calculated from retention time with one calibration function (A–F), Table S7, read-out: logD7.4 (single determination)
[6] = pH 7.4, estimated by HPLC-based method, pH 7.4, read-out: LogD 7.4
[7] = KV7.2/3 opening, ratio of EC50 values

Row | Structure (SMILES) | LD25 (concentration to reduce cell viability by 25 %) [1] | LD50 (concentration to reduce cell viability by 50 %) [1] | logD7.4 (single determination) ([2]; Table S7) | chromatographic logD [2, 5] | chromatographic logD [2, 6] | Ep.a. (anodic peak potential) [3] | EC50 (KV7.2/3 channel) | Emax (KV7.2/3 channel) | KV7.2/3 opening activity (in words) (KV7.2/3 channel) | LD25 (concentration to reduce cell viability by 25 %) [4] | LD50 (concentration to reduce cell viability by 50 %) [4] | fold increase in potency compared to 43 a (KV7.2/3 channel; [7]) | fold increase in potency compared to 35 b (KV7.2/3 channel; [7])
1 | CCCC(=O)Nc1ccc(CNc2ccc(C)cn2)cc1C [35 f, N ‐(2‐Methyl‐4‐{[(5‐methylpyridin‐2‐yl)amino]methyl}phenyl)butyramide] | >125 µM | >125 µM | 2.263 | 2.29 | 2.3 | 850 mV | 7.86 ± 2.17 µM | 70 ± 9% | weakly active | >125 µM | >125 µM | – | –
2 | Cc1nc(CNc2ccc(F)cc2)ccc1NC(=O)OCC(C)C [compound 27, Isobutyl (6‐{[(4‐fluorophenyl)amino]methyl}‐2‐methylpyridin‐3‐yl)carbamate] | 76 ± 15 µM | >250 µM | 3.408 | 3.42 | 3.4 | 648 mV | 4.12 ± 3.95 µM | 94 ± 15% | – | 136 ± 38 µM | >250 µM | – | –
3 | Cc1cc(CNc2ccc(F)cc2)cnc1NC(=O)CC(C)(C)C [43 b, N ‐(5‐{[(4‐Fluorophenyl)amino]methyl}‐3‐methylpyridin‐2‐yl)‐3,3‐dimethylbutanamide] | >125 µM | >125 µM | 3.039 | 3.03 | 3 | 663 mV | 0.677 ± 0.419 µM | 153 ± 12% | submicromolar activity | 66 ± 27 µM | >125 µM | 7.2 fold | –
4 | CCCC(=O)Nc1ncc(CNc2ccc(F)cc2)cc1Br [42 a, N ‐(3‐Bromo‐5‐{[(4‐fluorophenyl)amino]methyl}pyridin‐2‐yl)butyramide] | >63 µM | >63 µM | 2.714 | 2.71 | 2.7 | 668 mV | 5.45 ± 1.7 µM | 163 ± 23% | – | >63 µM | >63 µM | – | –
5 | CCCC(=O)Nc1c(C)cc(CNc2ccc(F)cc2)cc1C [35 a, N ‐(4‐{[(4‐Fluorophenyl)amino]methyl}‐2,6‐dimethylphenyl)butyramide] | – | >125 µM | 3.023 | 3.04 | 3 | 633 mV | 0.143 ± 0.02 µM | 143 ± 7% | submicromolar activity | – | >125 µM | – | 4.7 fold
